Series [1] in a line: in vitro. The following applies: human.
In series [2] the test system is HCV replicon (Genotype 1b). Kind of series: Luciferase genotype 1b replicon potency assay. To be noted: Hepatitis C virus, GETYPE1B, read-out: IC50 μM, HCV genotype 1b luciferase replicon, Renilla luciferase reporter.

Molecules are shown by their SMILES.

The compound `COc1nc(N)nc2c1ncn2C1O[C@H](CO[P@](=O)(N[C@@H](C)C(=O)OCC(C)(C)C)Oc2cccc3ccccc23)[C@@H](O)[C@@]1(C)O` (single isomer, unassigned) [Example 22] yielded a CC50 in series [1] of 6 µM. The IC50 in series [2] came to 0.019 µM.

In series [1], `COc1nc(N)nc2c1ncn2C1O[C@H](COP(=O)(N[C@@H](C)C(=O)OCc2ccc(F)cc2F)Oc2cccc3ccccc23)[C@@H](O)[C@@]1(C)O` (stereo partly drawn) [Example 14, (2S)-2,4-difluorobenzyl 2-((((2R,3R,4R)-5-(2-amino-6-methoxy-9H-purin-9-yl)-3,4-dihydroxy-4-methyltetrahydrofuran-2-yl)methoxy)(naphthalen-1-yloxy)phosphorylamino)propanoate] registered a CC50 of 15 µM. For the same compound, the 50% inhibitory concentration (IC50) in series [2] was 0.04 µM.

As to `COc1nc(N)nc2c1ncn2C1O[C@H](COP(=O)(N[C@@H](C)C(=O)O[C@@H](C)c2ccccc2)Oc2cccc3ccccc23)[C@@H](O)[C@@]1(C)O` (stereo partly drawn) [Example 15], the CC50 in series [1] was 12 µM. Besides, the IC50 in series [2] amounted to 0.032 µM.

Take `COc1nc(N)nc2c1ncn2C1O[C@H](COP(=O)(N[C@@H](C)C(=O)OC2Cc3ccccc3C2)Oc2cccc3ccccc23)[C@@H](O)[C@@]1(C)O` (stereo partly drawn) [Example 16, (2S)-2,3-dihydro-1H-inden-2-yl 2-((((2R,3R,4R)-5-(2-amino-6-methoxy-9H-purin-9-yl)-3,4-dihydroxy-4-methyltetrahydrofuran-2-yl)methoxy) (naphthalen-1-yloxy)phosphorylamino)propanoate]: the CC50 in series [1] was determined as 11 µM. Besides, the IC50 in series [2] stood at 0.027 µM.

In series [1], `CCCOC(=O)[C@H](C)NP(=O)(OC[C@H]1OC(n2cnc3c(OC)nc(N)nc32)[C@](C)(O)[C@@H]1O)Oc1cccc2ccccc12` (stereo partly drawn) [Example 17, (2S)-propyl 2-((((2R,3R,4R)-5-(2-amino-6-methoxy-9H-purin-9-yl)-3,4-dihydroxy-4-methyltetrahydrofuran-2-yl)methoxy)(naphthalen-1-yloxy)phosphorylamino)propanoate] displayed a CC50 of 12 µM. Also, the IC50 in series [2] was determined as 0.029 µM.

Compound `COc1nc(N)nc2c1ncn2C1O[C@H](COP(=O)(N[C@@H](C)C(=O)OCCC(C)(C)C)Oc2cccc3ccccc23)[C@@H](O)[C@@]1(C)O` (stereo partly drawn) [Example 18, (2S)-3,3-dimethylbutyl 2-((((2R,3R,4R)-5-(2-amino-6-methoxy-9H-purin-9-yl)-3,4-dihydroxy-4-methyltetrahydrofuran-2-yl)methoxy)(naphthalen-1-yloxy)phosphorylamino)propanoate] gave a CC50 in series [1] of 7.6 µM. Also, in series [2], the concentration for half-maximal inhibition (IC50) came to 0.013 µM.

Turning to `COc1nc(N)nc2c1ncn2C1O[C@H](COP(=O)(N[C@@H](C)C(=O)OCC(C)C)Oc2cccc3ccccc23)[C@@H](O)[C@@]1(C)O` (stereo partly drawn) [Example 19, (2S)-isobutyl 2-((((2R,3R,4R)-5-(2-amino-6-methoxy-9H-purin-9-yl)-3,4-dihydroxy-4-methyltetrahydrofuran-2-yl)methoxy)(naphthalen-1-yloxy)phosphorylamino)propanoate], in series [1], the CC50 was 14 µM. Besides, the 50% inhibitory concentration (IC50) in series [2] came out at 0.037 µM.

Take `COc1nc(N)nc2c1ncn2C1O[C@H](CO[P@@](=O)(N[C@@H](C)C(=O)OCC(C)(C)C)Oc2cccc3ccccc23)[C@@H](O)[C@@]1(C)O` (stereo partly drawn) [Example 21]: in series [1], the CC50 was 13 µM. Besides, the IC50 in series [2] is 0.043 µM.

In series [1], `COc1nc(N)nc2c1ncn2C1O[C@H](COP(=O)(N[C@@H](C)C(=O)OC(C)C)Oc2cccc3ccccc23)[C@@H](O)[C@@]1(C)O` (stereo partly drawn) [Example 23, (2S)-isopropyl 2-((((2R,3R,4R)-5-(2-amino-6-methoxy-9H-purin-9-yl)-3,4-dihydroxy-4-methyltetrahydrofuran-2-yl)methoxy)(naphthalen-1-yloxy)phosphorylamino)propanoate] came in with a CC50 of 100 µM. Further, the IC50 in series [2] was 0.43 µM.

As for `COc1nc(N)nc2c1ncn2C1O[C@H](COP(=O)(N[C@@H](C)C(=O)OC2CCCC2)Oc2cccc3ccccc23)[C@@H](O)[C@@]1(C)O` (stereo partly drawn) [Example 24, (2S)-cyclopentyl 2-((((2R,3R,4R)-5-(2-amino-6-methoxy-9H-purin-9-yl)-3,4-dihydroxy-4-methyltetrahydrofuran-2-yl)methoxy)(naphthalen-1-yloxy)phosphorylamino)propanoate], the CC50 in series [1] was 9 µM. In addition, in series [2], the IC50 was found to be 0.02 µM.

Take `COc1nc(N)nc2c1ncn2C1O[C@H](COP(=O)(N[C@@H](C)C(=O)OC2CCCCC2)Oc2cccc3ccccc23)[C@@H](O)[C@@]1(C)O` (stereo partly drawn) [Example 25, (2S)-cyclohexyl 2-((((2R,3R,4R)-5-(2-amino-6-methoxy-9H-purin-9-yl)-3,4-dihydroxy-4-methyltetrahydrofuran-2-yl)methoxy)(naphthalen-1-yloxy)phosphorylamino)propanoate]: the CC50 in series [1] came to 6 µM. Besides, the half-maximal inhibitory concentration (IC50) in series [2] was 0.014 µM.

With `COc1nc(N)nc2c1ncn2C1O[C@H](COP(=O)(N[C@@H](C)C(=O)OC2CCOCC2)Oc2cccc3ccccc23)[C@@H](O)[C@@]1(C)O` (stereo partly drawn) [Example 26, (2S)-tetrahydro-2H-pyran-4-yl 2-((((2R,3R,4R)-5-(2-amino-6-methoxy-9H-purin-9-yl)-3,4-dihydroxy-4-methyltetrahydrofuran-2-yl)methoxy)(naphthalen-1-yloxy)phosphorylamino)propanoate], the CC50 in series [1] was 130 µM. Also, the IC50 in series [2] worked out at 0.08 µM.

In series [1], `COC(=O)[C@@H](C)c1ccc2cc(OP(=O)(N[C@@H](C)C(=O)OCc3ccc(F)cc3F)OC[C@H]3OC(n4cnc5c(OC)nc(N)nc54)[C@](C)(O)[C@@H]3O)ccc2c1` (stereo partly drawn) [Example 27, (2S)-2,4-difluorobenzyl 2-((((2R,3R,4R)-5-(2-amino-6-methoxy-9H-purin-9-yl)-3,4-dihydroxy-4-methyltetrahydrofuran-2-yl)methoxy)(6-((S)-1-methoxy-1-oxopropan-2-yl)naphthalen-2-yloxy)phosphorylamino)propanoate] showed a CC50 of 28 µM. For the same compound, the half-maximal inhibitory concentration (IC50) in series [2] came out at 0.055 µM.

As for `COc1nc(N)nc2c1ncn2C1O[C@H](COP(=O)(N[C@@H](CCSC)C(=O)OCc2ccccc2)Oc2cccc3ccccc23)[C@@H](O)[C@@]1(C)O` (stereo partly drawn) [Example 58, (2S)-benzyl 2-((((2R,3R,4R)-5-(2-amino-6-methoxy-9H-purin-9-yl)-3,4-dihydroxy-4-methyltetrahydrofuran-2-yl)methoxy)(naphthalen-1-yloxy)phosphorylamino)-4-(methylthio)butanoate], the IC50 in series [2] was found to be 0.22 µM.

Consider `CCCOC(=O)[C@@H](NP(=O)(OC[C@H]1OC(n2cnc3c(OC)nc(N)nc32)[C@](C)(O)[C@@H]1O)Oc1cccc2ccccc12)c1ccccc1` (stereo partly drawn) [Example 65], for which the IC50 in series [2] is 0.086 µM.

For the compound `C[C@@]1(O)[C@H](O)[C@@H](CO)O[C@H]1n1cnc2c(NCCc3ccccc3)nc(N)nc21` [Example 86, (3R,4R,5R)-2-(2-amino-6-(phenethylamino)-9H-purin-9-yl)-5-(hydroxymethyl)-3-methyltetrahydrofuran-3,4-diol], in series [2], the half-inhibitory concentration (IC50) is 23.6 µM.

Regarding `COc1nc(N)nc2c1ncn2C1O[C@H](COP(=O)(N[C@@H](C(=O)OCc2ccccc2)c2ccccc2)Oc2cccc3ccccc23)[C@@H](O)[C@@]1(C)O` (stereo partly drawn) [compound 68], the CC50 in series [1] stood at 50 µM.

Values taken from patent US8759318B2, “Phosphoramidate derivatives of guanosine nucleoside compounds for treatment of viral infections” (Inhibitex, Inc., priority 2009, dated 2014).
